Experimental data taken from PMC8156053, “Synthesis, Characterization, and In Vitro Insulin-Mimetic Activity Evaluation of Valine Schiff Base Coordination Compounds of Oxidovanadium(V)” (Biomedicines, 2021).
Where “and” joins values, the source holds several entries; their conditions need not be identical. Identical values can stand only once.

Assays:
[1] = target: T1, α-Amylase from porcine pancreas (Sus scrofa, UniProt P00690); assay: Inhibition of the α-amylase activity (DNS/starch); assay type: biochemical; conditions: 1.8 × 10^−2 and 2.0 × 10^−2 M, compared to DMSO
T1 construct: α-Amylase from porcine pancreas, bovine serum albumin (BSA); purchased SIGMA-Aldrich (Merck KGaA, Darmstadt, Germany); host or cells: porcine pancreas
T1 sequence (P00690 16-511): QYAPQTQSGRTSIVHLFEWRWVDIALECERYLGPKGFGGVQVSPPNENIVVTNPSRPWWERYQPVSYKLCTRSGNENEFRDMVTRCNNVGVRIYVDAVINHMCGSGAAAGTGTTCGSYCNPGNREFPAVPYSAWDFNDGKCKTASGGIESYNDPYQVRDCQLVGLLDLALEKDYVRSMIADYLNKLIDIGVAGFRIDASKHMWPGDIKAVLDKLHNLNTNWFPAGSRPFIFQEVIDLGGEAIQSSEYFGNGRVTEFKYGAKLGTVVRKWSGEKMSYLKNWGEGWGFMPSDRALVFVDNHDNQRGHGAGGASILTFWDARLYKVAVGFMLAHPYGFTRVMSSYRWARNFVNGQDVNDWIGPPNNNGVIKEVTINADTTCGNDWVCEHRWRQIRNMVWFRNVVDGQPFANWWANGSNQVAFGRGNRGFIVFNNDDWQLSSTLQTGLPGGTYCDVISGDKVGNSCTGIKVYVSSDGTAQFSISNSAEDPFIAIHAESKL
Procedure: The capacity of the obtained complexes to inhibit pancreatic α-amylase activity in vitro was analyzed using a slightly modified procedure of the one described by Apostolidis and Lee. Thus, 100 µL solution of complexes (1.8 ÷ 2.5 × 10^−2 M), 2.5 × 10^−2 M V^IVOSO4•3H2O, 2.5 × 10^−2 M acarbose (positive control) and 12.5% DMSO (negative control) in reaction buffer (2 × 10^−2 M sodium phosphate, pH 6.9 with 6 × 10^−3 M sodium chloride) were pre-exposed to 100 µL of 20 units/mL α-amylase in reaction buffer for 10 min at room temperature. Then, 100 µL of 1% starch solution in reaction buffer were added and the samples were incubated at room temperature for 10 min. The reaction was stopped with 200 µL of 3, 5-dinitrosalicylic acid (DNS). The samples were heated at 90 ÷ 95 °C for 10 min and then left to cool down at room temperature. The reaction mixture was further diluted with 4 mL of distilled water. As a control for the inhibitory effect of acarbose, a sample containing starch and enzyme was used. The yellow/orange color intensity was measured using the microplate reader TECAN Infinite M200Pro at 540 nm. The experiment was performed in triplicate. The blank (sample without starch and enzyme) absorbance was subtracted from the absorbance of all samples and the activity of α-amylase was expressed as % of DMSO (negative control).

[2] = Solution stability over time in PBS by UV-Vis spectrophotometry; assay type: physicochemical; conditions: for decrease in the intensity of λmax: 2 × 10^−4 M in PBS pH 7.4, 37 °C; for stability in PBS: physiological pH (7.4), 37 °C
Procedure: Electronic absorption spectra for the 2 × 10^−4 M solution of the four oxidovanadium(V) complexes in PBS at pH 7.4 were recorded outright on the prepared solutions (designated as T 0 h in the histograms), after the preparation at 1 h (T 1 h), 3 h (T 3 h), 6 h (T 6 h), 9 h (T 9 h), and 24 h (T 24 h), respectively. The prepared solutions were incubated at 37 °C, and the readings were performed over the entire 500 ÷ 230 nm range using a microplate reader spectrophotometer TECAN Infinite M200Pro and a 96-well UV micro test plate. The data were expressed as the average ± SD of three independent measurements.

[3] = target: T2, bovine serum albumin (BSA) (Bos taurus, UniProt P02769); assay: Fluorescence quenching of serum albumin (Stern–Volmer); assay type: binding; conditions: for Stern–Volmer constant KSV: BSA 2 × 10^−6 M, PBS pH 7.4, emission 347 nm; for decrease of BSA fluorescence intensity: highest tested concentration (2.5 × 10^−5 M), 2 × 10^−6 M BSA, PBS pH 7.4, vs free BSA and BSA with DMSO; for collision quenching constant Kq (Kq = Ksv/τ0): τ0 = 10^−8 s
T2 construct: α-Amylase from porcine pancreas, bovine serum albumin (BSA); purchased SIGMA-Aldrich (Merck KGaA, Darmstadt, Germany)
T2 sequence (P02769 25-607): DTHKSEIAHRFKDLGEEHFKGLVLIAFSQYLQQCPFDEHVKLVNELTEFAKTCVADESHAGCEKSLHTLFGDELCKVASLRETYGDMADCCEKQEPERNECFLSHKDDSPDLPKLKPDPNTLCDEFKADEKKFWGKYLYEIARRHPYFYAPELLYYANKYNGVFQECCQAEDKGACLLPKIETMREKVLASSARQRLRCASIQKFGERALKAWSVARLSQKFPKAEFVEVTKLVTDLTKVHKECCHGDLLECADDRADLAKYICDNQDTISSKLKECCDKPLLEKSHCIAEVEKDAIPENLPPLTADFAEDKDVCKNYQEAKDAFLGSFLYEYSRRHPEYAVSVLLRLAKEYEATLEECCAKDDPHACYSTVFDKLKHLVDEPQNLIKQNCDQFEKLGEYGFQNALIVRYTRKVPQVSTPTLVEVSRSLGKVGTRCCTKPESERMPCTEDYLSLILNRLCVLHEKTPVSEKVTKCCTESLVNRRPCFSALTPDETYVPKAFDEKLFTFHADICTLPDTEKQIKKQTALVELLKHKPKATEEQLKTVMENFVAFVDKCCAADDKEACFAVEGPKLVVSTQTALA
Procedure: The capacity of the oxidovanadium(V) compounds to bind to bovine serum albumin (BSA) was monitored by fluorescence quenching assay. A solution of 2 × 10^−6 M BSA in PBS, pH 7.4, was incubated for 2 h at 37 b0C with each vanadium-based compound or V^IVOSO4•3H2O at increasing molar concentrations (1 × 10^−6 ÷ 2.5 × 10^−5 M) or with 0.025% DMSO (negative control). The samples were excited at 295 nm and the emission spectra of all BSA solutions were recorded in the 300 ÷ 450 nm range using a JASCO FP-750 spectrofluorometer. The final spectrum was the average of three recordings measured at a scanning speed of 250 nm/minute, with an excitation and emission bandwidth of 5 nm. […] In addition, by applying the Stern–Volmer equation [23], the mechanism by which the complexes bind to BSA was investigated as it is described in the Supplementary material.
The Stern–Volmer e quation
The Stern–Vol mer equation [1] is:
I0/I= 1+ Kqτ0[Q] = 1 + Ksv[Q], where: I0 = the fluor escence intensities of fr ee BS A solution at 347 nm, I = the fluorescence intensities of BS A solution at 347 nm in the presence of vanadium […]
[Q] = the concentration of vanadium co mplexes, τ0 = the fluorescence l ifetime of the biopolymer (10-8 s), Kq = the coll isi on quenching constant;
Ksv = the Stern-Volmer constant.
Stern–Vol mer plots of the B SA fluorescence quenching in t he prese nce of each compou nd are represented in Fig. S4, together with the ir linear best fit in which y = I0/I, x = [Q], a = slope of the li ne, […]
The fluorescence intensitie s are the average of three recordings measured at a scanning speed of 250 nm/min, with an excitation and emissio n bandwidth of 5 nm.

HepG2 cells = assay: Cytotoxicity, XTT cell viability assay; assay type: cell-based, human; conditions: 24 h
Procedure: HepG2 cell line was purchased from American Type Culture Collection. The cells were grown in Dulbecco’s Modified Eagle’s Medium (DMEM) with 4.5‰ glucose, supplemented with 10% (v/v) fetal bovine serum, 100 units/mL penicillin, and 100 µg/mL streptomycin (complete medium). HepG2 cells were maintained at 37 °C in a 5% carbon dioxide incubator and were periodically sub-cultivated.
To determine the cytotoxic concentration of the synthesized oxidovanadium(V) complexes and V^IVOSO4•3H2O, HepG2 cells were incubated with increasing molar concentrations (1 × 10^−5 ÷ 3 × 10^−4 M) of compounds.
HepG2 cells (1.5 × 10^4 cells/mL) were seeded in complete medium on a 96-well cell culture plate and were incubated at 37 b0C, as previously described. […] Control cells were represented by cells exposed to free-complete medium and medium supplemented with 0.15% DMSO. The cytotoxicity of tested compounds on the HepG2 cell line was assessed by the 2, 3-bis-(2-methoxy-4-nitro-5-sulfophenyl)-2H-tetrazolium-5-carboxanilide) (XTT) cell viability assay. The method is based on the reduction of XTT, in the presence of phenazine methosulfate, to a water-soluble orange formazan derivative. The absorbance of the sample, due to the intensity of the orange color, which is proportional to the number of viable cells, was recorded at 450 nm using the Tecan Infinite M200Pro spectrophotometer.

insulin receptor (INS R) = assay: Quantification of phosphorylated insulin receptor by immunoblotting in HepG2 cells; assay type: cell-based, human; conditions: 10^−7 M insulin
Procedure: To investigate the effect of oxidovanadium(V) complexes on insulin receptor (INS R) phosphorylation, HepG2 cells (1.0 × 10^5 cells/mL) were treated with 2.5 × 10^−5 M oxidovanadium(V) compounds, V^IVOSO4•3H2O, and 10^−7 M insulin (positive control) for 3 and 24 h, respectively. As negative controls, cells exposed to free-complete medium (negative control for treatment with V^IVOSO4•3H2O and insulin) and cells exposed to 0.0125% DMSO (negative control for treatment with complexes) were used.
After cell lysis, 50 µg of total protein was denatured by adding 1/5th volume of Laemmli’s buffer 6× (15% SDS, 0.01% bromophenol blue, 74% glycerol, 7.5 × 10^−2 M Tris, pH 6.8, 1/8th volume of 2-mercaptoethanol) followed by heating at 95 °C for 5 min. […]
The separated proteins were transferred (using a Trans-Blot Semi-Dry transfer cell, Bio-Rad) to a nitrocellulose membrane (0.45 µm, Bio-Rad), blocked with 1% BSA for 1 hour, and incubated overnight with the primary antibody: Mouse anti-insulin receptor-β chain (INS R-β) (1:500, Santa Cruz Biotechnology cat. No. sc-57342), rabbit anti-phosphorylated INS R-Y1162/3 (pINS R, 1:400, R&D Systems, Minneapolis, MN, USA cat. No. AF2507) and mouse anti-β-actin (1/2000, Bio-Rad cat. no. MCA5775GA). […] The data were expressed as the mean ± SD of two individual experiments performed in duplicate.

[4] = ratio of BSA quenching constants

Row | Molecule | inhibitory effect on α-amylase activity [1] | decrease in the intensity of λmax ([2]; 1 h vs T 0 h) | decrease in the intensity of λmax ([2]; 3 h vs T 0 h) | decrease in the intensity of λmax ([2]; 6 h vs T 0 h) | decrease in the intensity of λmax ([2]; 9 h vs T 0 h) | decrease in the intensity of λmax ([2]; 24 h vs T 0 h) | stability in PBS [2] | Stern–Volmer constant KSV [3] [M⁻¹] | decrease of BSA fluorescence intensity [3] | Kq(1a)/Kq(1b) [3, 4] | collision quenching constant Kq (Kq = Ksv/τ0) [3] [M⁻¹ s⁻¹] | increase of α-amylase enzyme activity [1] [%] | Kq(2a)/Kq(1a) [3, 4] | Kq(2a)/Kq(2b) [3, 4] | Kq(2b)/Kq(1b) [3, 4] | reduction of HepG2 viability (HepG2 cells; highest concentration (3 × 10^−4 M), compared to control cells) [%] | reduction of HepG2 viability (HepG2 cells; 1 × 10^−5 M, compared to DMSO treated cells) [%] | increase of INS R phosphorylation (insulin receptor (INS R); 3 h, HepG2, compared to cells exposed to free-complete medium) | INS R phosphorylation (insulin receptor (INS R); 24 h, HepG2, compared to control cells)
1 | CC(C)[C@H]1N=Cc2ccccc2[O][V](=[O])([O][V]2(=[O])[O]C(=O)[C@@H](C(C)C)N=Cc3ccccc3[O]2)[O]C1=O.O (stereo partly shown) [1a, [{V^VO(R-salval)(H2O)}(μ2-O){V^VO(R-salval)}]] | more than 18% | about 10% | about 25% | about 40% | about 50% | about 70% | stable in PBS at physiological pH and temperature for up to three hours | 80700 | about 60% | 1.34 | 8.07e+12 |  |  |  |  |  |  |  | 
2 | CC(C)[C@H](N=Cc1ccccc1[O-])C(=O)[O-].CC(C)[C@H](N=Cc1ccccc1[O-])C(=O)[O-].O.[O]=[V+2][O][V+2]=[O] [1b, [{V^VO(S-salval)(H2O)}(μ2-O){V^VO(S-salval)}]] | more than 18% | about 10% | about 25% | about 40% | about 50% | about 70% | stable in PBS at physiological pH and temperature for up to three hours | 60100 | about 60% |  | 6.01e+12 |  |  |  |  |  |  |  | 
3 | CO.CO.COc1cccc2c1[O][V](=[O])([O][V]1(=[O])[O]C(=O)[C@@H](C(C)C)N=Cc3cccc(OC)c3[O]1)[O]C(=O)[C@@H](C(C)C)N=C2 (stereo partly shown) [2a, [{V^VO(R-vanval)(CH3OH)}2(μ2-O)]] |  | less than 10% | less than 20% | ~20% | ~30% | ~30% | stable in PBS at physiological pH and temperature for up to three hours | 171800 | ~80% |  | 1.718e+13 | 35 | 2 and 2.12 | 0.69 |  |  |  |  | 
4 | CO.CO.COc1cccc(C=N[C@H](C(=O)[O-])C(C)C)c1[O-].COc1cccc(C=N[C@H](C(=O)[O-])C(C)C)c1[O-].[O]=[V+2][O][V+2]=[O] [2b, [{V^VO(S-vanval)(CH3OH)}2(μ2-O)]] |  | less than 10% | less than 20% | ~20% | ~30% | ~30% | stable in PBS at physiological pH and temperature for up to three hours | 248900 | ~80% |  | 2.489e+13 | 35 |  |  | 4 and 4.14 |  |  |  | 
5 | O.O.O.O=S(=O)([O-])[O-].[O]=[V+2] [V^IVOSO4•3H2O, reference compound] |  |  |  |  |  |  |  |  | does not reduce the fluorescence intensity of BSA |  |  |  |  |  |  | 34 |  |  | 
6 | N.N.[Cl][Pt][Cl] [cisplatin] |  |  |  |  |  |  |  |  |  |  |  |  |  |  |  |  | 44 |  | 
7 | insulin: human recombinant insulin, positive control for INS R phosphorylation |  |  |  |  |  |  |  |  |  |  |  |  |  |  |  |  |  | about 80% | reduced and insignificant
